Experimental data published in patent US7265111B2, “Adenosine analogues and their use as pharmaceutical agents” (Sanofi-Aventis Deutschland GmbH, priority 2002, dated 2007).

Experiments:
[1] = tested on: isolated rat adipocytes; experiment: Antilipolytic effect in isolated rat adipocytes; format: cell-based; settings: Adipocyte, adenosine deaminase-induced lipolysis (glycerol and free fatty acid release)
Method: E. Antilipolytic Effect in Isolated Rat Adipocytes:
For the preparation of isolated rat adipocytes, epididymal fat pads were obtained from male Sprague-Dawley rats (150-180 g) killed by decapitation. The main fat pad blood vessel was removed with forceps and the pads were cut into small pieces. Digestion was carried out at 37° C. in a shaking water bath by treating 1 g of sliced pad for 20 min with 3 ml of 1 mg/ml collagenase (type I, CLS, Worthington) in 1% BSA, fraction V, in KRH (Krebs-Ringer solution buffered with 25 mM HEPES/KOH, pH 7.4, containing 2.5 mM CaCl2, 2 mM glucose, 1 mM sodium pyruvate, 0.5 units/ml adenosin deaminase and 200 nM phenylisopropyl adenosine). The adipocytes were filtered through nylon mesh of sufficient pore size that no pressure other than gentle teasing with a plastic spatula was necessary for the cells to pass through. After three cycles of centrifugation (500 g, 1 min), aspiration of the infranatant. and resuspension in KRH containing 1% BSA, the cells were suspended in KRH containing 4% defatted BSA. Small aliquots of the final suspension were aspirated into capillary hematocrit tubes and centrifuged for 1 min in a Microhematocrit centrifuge in order to determine what fraction of the suspension consisted of fat cells. Results expressed as activities per unit volume of packed adipocytes (corresponding to equivalent numbers of cells) are based on this centrifugation procedure. Lipolysis was initiated by addition of a 100 μl aliquot of the adipocyte suspension to 700 μl of incubation medium [prewarmed to 37° C. and consisting of KRH, 4% defatted BSA and 1 U/ml adenosine deaminase (type I, Sigma)], with or without addition of 8 μl of a solution of the appropriate test substance in 100% DMSO (at a concentration corresponding to 100 times its concentration in the final mixture). […] Incubations were performed in 5 ml polypropylene vials agitated in a shaking water bath (140 cycles/min, amplitude 4.5 cm) at 37° C. for 20, 40, and 60 min. The incubation was terminated by addition of 200 μl of 50 mM EDTA buffered to pH 7.4 with Tris. For the glycerol determination, the whole mixture was mixed rapidly and homogenized with a ground glass pestle in a 1 ml ground glass homogenizing tube (10 pulses). The homogenate was transferred immediately to a 1.5 ml Eppendorf cup precooled to 4° C., after which the extracts were maintained at 4° C. The homogenate was then centrifuged (10,000 g, 15 min) and the infranatant below the fat cake removed with a glass Pasteur pipette. taking care not to aspirate the membrane pellet. and transferred to another Eppendorf cup. 300 μl aliquots of the infranatant were added to 300 μl volumes of 10% (w/v) HClO4. The precipitate was in each case removed by centrifugation (10,000 g, 2 min) and the supernatant neutralized with 20% (w/v) KOH, followed by addition of 50 μl of 1 M Tris/HCl, pH 7.4, A 50 μl sample was then incubated (5 min, 37° C.) with 1 ml of 0.1 M HEPES/KOH, pH 7.5, containing 2 mM ATP, 0.5 mM 4-aminoantipyrine, 1 mM EDTA, 0.5 U glycerol kinase, 4 U glycerol-3-phosphate oxidase, 2 U peroxidase, 2.7 mM p-chlorophenol, 0.04% Triton X-100 and 2 mM MgSO4.7H2O, and the glycerol content determined from the absorbance at 505 nm. For the determination of free fatty acids, 300 μl aliquots of the incubation mixture were added to 3 ml of chloroform/heptane (1:1 v/v) containing 2% (v/v) methanol. and the liberated free fatty acids determined with copper reagent and bathocuproine. The inhibitory activities of the cyclipostins were calculated from the combined results (glycerol and free fatty acid release) by plotting the log of the dose against the percent response (with the adenosine deaminase-induced lipolysis set at 100%). Data in the linear portion of the log (dose)-percent response curves were analyzed using parallel-line bioassay techniques.

[2] = tested on: isolated guinea pig atrium; experiment: Effect on the isolated guinea pig atrium (contractile force, heart rate); settings: for Contractile force: at 30 μM; for Heart rate: at 1–100 μM
Method: D. Effect on the Isolated Guinea Pig Atrium:
Guinea pigs of either sex were killed by a blow on the back of the neck and exsanguinated.
Their heart was taken out and the atria removed. The preparation (atrium) was immediately transferred to Ringer solution (JT 431) which was at a temperature of 32° C. and was bubbled with a mixture of 95% O2 and 5% CO2. The composition of the solution in […] was: NaCl 9.0; KCl 0.42 CaCl2 0.24; NaHCO3 0.2; glucose 1.0. The atrium beats spontaneously with an initial tension of 500 mg. The contractile force and the heart rate was recorded with a computer program and automatically calculated (B-mon and A-mon PC programs. Fa. Jäckel. Hanau. GERMANY). After equilibration, the test compound was added to a final bath concentration. N was 4-6 per concentration.

[3] = target: T1, Adenosine A2a receptor (Homo sapiens, UniProt P29274); experiment: FLIPR intracellular Ca2+ functional assay, recombinant CHO cells (A2a/Gα16); format: cell-based
T1 construct: expressed in transfected cells; host or cells: CHO (Chinese hamster ovary) cells, stably double-transfected
Method: (§1) In Vitro Functional Assays with Recombinant Cell Lines:
(§2) Functional assays were performed by detection of agonist-induced changes in the intracellular concentration of Ca^2+ in recombinant cell lines expressing adenosine receptor subtypes using the FLIPR™ (fluorescence imaging plate reader, Molecular Devices) technology. To allow optimal signalling through Ca^2+, chinese hamster ovary (CHO) cells were stably double-transfected with cDNAs to achieve expression of suitable combinations of adenosine receptor subtypes (A1, A2a, A2b or A3) with either G-protein Gα16 or hybrid protein Gα6qi4myr (German Patent Application no. 100333532.2). Optimal signals were achieved using combinations as follows:
(§3) For assays, recombinant cells were seeded in 96-well dishes (50000 cells/well) and grown overnight. Medium was then removed and cells incubated for 1 hour in buffer containing the dye Fluo-4. After incubation with dye, cells were washed, test compound added and changes in intracellular Ca^2+ concentration measured by FLIPR. Measured values were expressed as % change relative to controls (0%: no test compound added; 100%: 1 μM Adenosine added) and used for calculation of dose-response curves and subsequent determination of EC50 values.

[4] = target: T2, Adenosine A3 receptor (Homo sapiens, UniProt P0DMS8); experiment: FLIPR intracellular Ca2+ functional assay, recombinant CHO cells (A3/Gα6qi4myr); format: cell-based; settings: read-out: EC50 values (agonist activity at adenosine receptors) A3
T2 construct: expressed in transfected cells; host or cells: CHO (Chinese hamster ovary) cells, stably double-transfected
T2 sequence (P0DMS8 1-318): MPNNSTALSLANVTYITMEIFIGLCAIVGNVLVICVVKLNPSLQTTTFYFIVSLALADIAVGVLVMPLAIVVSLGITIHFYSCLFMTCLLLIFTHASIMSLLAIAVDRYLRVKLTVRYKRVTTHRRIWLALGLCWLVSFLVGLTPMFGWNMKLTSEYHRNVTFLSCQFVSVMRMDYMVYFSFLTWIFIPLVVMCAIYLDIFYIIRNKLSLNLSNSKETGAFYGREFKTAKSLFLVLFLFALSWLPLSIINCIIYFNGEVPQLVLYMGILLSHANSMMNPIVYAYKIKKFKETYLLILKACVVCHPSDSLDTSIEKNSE
Method: as §1, §2, §3

[5] = target: T3, Adenosine A2b receptor (Homo sapiens, UniProt P29275); experiment: FLIPR intracellular Ca2+ functional assay, recombinant CHO cells (A2b/Gα16); format: cell-based
T3 construct: expressed in transfected cells; host or cells: CHO (Chinese hamster ovary) cells, stably double-transfected
T3 sequence (P29275 1-332): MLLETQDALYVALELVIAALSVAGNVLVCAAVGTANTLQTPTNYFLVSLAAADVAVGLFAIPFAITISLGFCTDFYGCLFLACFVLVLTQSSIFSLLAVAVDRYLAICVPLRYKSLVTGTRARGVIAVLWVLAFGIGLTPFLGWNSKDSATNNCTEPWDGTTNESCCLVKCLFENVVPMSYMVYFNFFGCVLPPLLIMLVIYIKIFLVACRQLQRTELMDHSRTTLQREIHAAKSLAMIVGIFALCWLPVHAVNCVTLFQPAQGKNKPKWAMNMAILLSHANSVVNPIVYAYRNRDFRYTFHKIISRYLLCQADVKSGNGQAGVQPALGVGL
Method: as §1, §2, §3

[6] = target: T4, Adenosine A1 receptor (Homo sapiens, UniProt P30542); experiment: FLIPR intracellular Ca2+ functional assay, recombinant CHO cells (A1/Gα6qi4myr); format: cell-based; settings: read-out: EC50 values (agonist activity at adenosine receptors) A1
T4 construct: expressed in transfected cells; host or cells: CHO (Chinese hamster ovary) cells, stably double-transfected
T4 sequence (P30542 1-326): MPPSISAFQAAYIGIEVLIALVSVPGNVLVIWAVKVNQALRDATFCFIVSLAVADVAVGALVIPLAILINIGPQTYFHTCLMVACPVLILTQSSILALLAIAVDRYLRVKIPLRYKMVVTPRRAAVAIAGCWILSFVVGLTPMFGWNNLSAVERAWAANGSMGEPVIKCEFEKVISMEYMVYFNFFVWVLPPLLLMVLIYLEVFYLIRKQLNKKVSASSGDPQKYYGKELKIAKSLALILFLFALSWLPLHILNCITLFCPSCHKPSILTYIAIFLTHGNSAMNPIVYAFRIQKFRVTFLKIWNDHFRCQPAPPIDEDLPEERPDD
Method: as §1, §2, §3

T1 sequence (P29274 whole entry): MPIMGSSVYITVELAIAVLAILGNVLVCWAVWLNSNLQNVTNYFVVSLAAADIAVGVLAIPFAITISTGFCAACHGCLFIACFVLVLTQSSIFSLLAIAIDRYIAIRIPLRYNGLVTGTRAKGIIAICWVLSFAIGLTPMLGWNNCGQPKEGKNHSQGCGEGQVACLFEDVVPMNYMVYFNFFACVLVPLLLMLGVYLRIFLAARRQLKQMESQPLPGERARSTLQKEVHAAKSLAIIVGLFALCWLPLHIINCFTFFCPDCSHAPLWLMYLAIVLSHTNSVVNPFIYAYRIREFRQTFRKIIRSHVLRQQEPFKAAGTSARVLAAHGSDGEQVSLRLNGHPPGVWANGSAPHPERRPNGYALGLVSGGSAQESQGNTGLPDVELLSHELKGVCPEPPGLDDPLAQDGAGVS

Row | IC50 [1] [nM] | EC50 values (agonist activity at adenosine receptors) A2A [3] | EC50 [4] [nM] | EC50 ([5]; read-out: EC50 values (agonist activity at adenosine receptors) A2B) [nM] | EC50 [6] [nM] | melting point [°C] | EC50 values (agonist activity at adenosine receptors) A2B [5] | SMILES | Contractile force [2] | Heart rate [2]
1 | 5 | Inactive | > 50000 | > 30000 | 1250 | 178 | – | O[C@@H]1[C@@H](CF)C[C@@H](n2cnc3c(N[C@H]4CCN(c5ccc(C(F)(F)F)cc5)C4)ncnc32)[C@@H]1O [Example 7, (1R,2S, 3R, 5S)-3-{6-[1-(4-trifluoromethyl-phenyl-1-yl) -pyrrolidin-3(S)-ylamino]-purin-9-yl}-5-fluoromethyl-cyclopentane-1,2-diol] | −1% at 30 μM | no effect at 1–100 μM
2 | 100 | Inactive | > 50000 | – | 15400 | 153 | inactive | O[C@@H]1[C@@H](COC(F)(F)F)C[C@@H](n2cnc3c(N[C@H]4CCN(c5ccc(C(F)(F)F)cc5)C4)ncnc32)[C@@H]1O [Example 10, (1R,2S,3R,5R)-3-{6-[1-(4-trifluoromethyl-phenyl-1-yl)-pyrrolidin-3(S)-ylamino]-purin-9-yl}-5-trifluoromethoxymethyl-cyclopentane-1,2-diol] | +3% at 30 μM | no effect at 1–100 μM
